For one assay, the target named is T1, MAPKAPK5 (Homo sapiens, UniProt Q8IW41).
T1 sequence (Q8IW41 1-473): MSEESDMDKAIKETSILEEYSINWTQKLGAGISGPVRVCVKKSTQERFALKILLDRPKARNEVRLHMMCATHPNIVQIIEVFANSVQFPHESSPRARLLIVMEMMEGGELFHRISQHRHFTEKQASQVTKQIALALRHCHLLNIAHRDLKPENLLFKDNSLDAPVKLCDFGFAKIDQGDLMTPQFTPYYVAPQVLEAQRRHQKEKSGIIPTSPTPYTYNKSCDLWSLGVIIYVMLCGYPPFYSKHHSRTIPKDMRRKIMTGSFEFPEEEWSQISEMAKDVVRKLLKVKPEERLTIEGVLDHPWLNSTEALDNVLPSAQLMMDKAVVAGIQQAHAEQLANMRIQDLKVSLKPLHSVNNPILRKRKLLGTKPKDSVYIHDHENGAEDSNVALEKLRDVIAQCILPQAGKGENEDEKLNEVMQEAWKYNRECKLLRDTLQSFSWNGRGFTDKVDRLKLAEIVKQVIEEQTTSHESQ
Put plainly: MAPKAP-K5 assay (FlashPlate, 33P-ATP).

Assay [1] relates to TNFα release by human PBMCs. Put plainly: Cytokine (TNFα) release by LPS stimulated human PBMCs, ELISA. In kind it is cell-based. The settings on record: ELISA of supernatant. On the procedure:
For the assay PBMCs are seeded at 2.5E6 cells/mL in 160 μL in 96-well plates (Nunc). Serial dilution of the test compounds are made first in DMSO (Sigma) and then diluted 50-fold in M199 medium (Gibco) containing 1% heat-inactivated FBS. Compounds are further 1/10 diluted in the assay plates to obtain final DMSO concentration of 0.2%. Cells are preincubated with the compounds for 1 hr at 37° C., 5% CO2. Then, cells are stimulated with LPS (Escherichia coli serotype 026:B6, Cat. No. L2654, Sigma) that is added in a volume of 20 μL to a final concentration of 1 μg/mL and cells are further cultured for 24 hr. The plates are centrifuged and the supernatant is collected and stored at −80° C. until analysis of appropriate dilutions in ELISAs.
After 4 hr incubation at RT, blocking buffer is removed and plates are washed once with PBST (1×PBS with 0.05% Tween-20 (Sigma)). Then, 40 μL of sample is transferred to the ELISA plates and plates are incubated at 4° C. […] Readout is performed on the Luminoscan Ascent Luminometer (Labsystems) with an integration time of 100 msec delivering raw data (RLU: relative luminescence units). […] Where compounds are tested at 8 concentrations (1/3 serial dilution), EC50-values can be calculated by curve fitting of the means of the PIN data achieved for a compound at each test concentration.
For orientation: An ELISA detects its analyte on a solid surface through an enzyme-linked reagent.

Assay [2] concerns MMP1 expression by activated synovial fibroblasts (RASFs). The assay is described as follows: 'MMP assay': MMP1 ELISA on supernatant of complex trigger activated synovial fibroblasts. In kind it is cell-based. Conditions: Homo sapiens, Fibroblast, Table 4, 48 hrs. As for the experimental part:
A 384-well format ELISA for measurement of MMP1 is developed. Various primary antibodies are tested, as well as various ELISA protocols. […] The antibody is diluted in buffer 40 (1.21 g Tris base (Sigma), 0.58 g NaCl (Calbiochem) and 5 ml 10% NaN3 (Sigma) in 1 L milliQ water and adjusted to pH 8.5). After overnight incubation at 4° C., plates are washed with PBS (80 g NaCl, 2 g KCl (Sigma), 11.5 g Na2HPO4.7H2O and 2 g KH2PO4 in 10 L milliQ; pH 7.4) and blocked with 100 μL/well Casein buffer (2% Casein (VWR International) in PBS). Next day, casein buffer is removed from ELISA plates and replaced by 50 μL/well EC buffer (4 g casein, 2.13 g Na2HPO4 (Sigma), 2 g bovine albumin (Sigma), 0.69 g NaH2PO4.H2O (Sigma), 0.5 g CHAPS (Roche), 23.3 g NaCl, 4 ml 0.5 M EDTA pH 8 (Invitrogen), 5 ml 10% NaN3 in 1 L milliQ and adjusted to pH 7.0). 0.25 mM DTT (Sigma) is added to the thawed samples plates. After removal of the EC buffer, 20 μL of sample is transferred to the ELISA plates. After overnight incubation at 4° C. plates are washed twice with PBS and once with PBST (PBS with 0.05% Tween-20 (Sigma)) and incubated with 35 μL/well biotinylated anti-MMP1 antibody solution (R&D). This secondary antibody is diluted in buffer C (0.82 g NaH2PO4.H2O, 4.82 g Na2HPO4, 46.6 g NaCl, 20 g bovine albumin and 4 mL 0.5M EDTA pH 8 in 2 L milliQ and adjusted to pH 7.0) at a concentration of 5 μg/mL. After 2 h of incubation at RT, plates are washed as described above and incubated with 50 μL/well streptavidin-HRP conjugate (Biosource). Streptavidin-HRP conjugate is diluted in buffer C at a concentration of 0.25 μg/mL. After 45 min, plates are washed as described above and incubated for 5 min with 50 μL/well BM Chem ELISA Substrate (Roche). Readout is performed on the Luminoscan Ascent Luminometer (Labsystems) with an integration time of 200 msec or with an Envision reader (Perkin Elmer).
SFs are seeded at a density of 3000 cells/well in 96 well plates. 24 hrs after seeding, increasing concentrations of dexamethasone are added to the cells. […]

Setting [3] is: read-out: MAPKAPK5 IC50, Table 1, 0.6 μM ATP, 30 minutes room temperature.
Where [4] appears, read: Table 1, 0.6 μM ATP, 30 minutes room temperature.

Molecules are shown by their SMILES. pEC50, pIC50: −log10 of the molar value. Like-named read-outs stand apart in the source and are kept apart here.

Procedure for MAPKAPK5: MAPKAP-K5 reactions are performed in FlashPlate format using 0.1 or 0.2 μCi 33P-ATP; 0.6 μM ATP; 1 mU MAPKAP-K5; 3 μM MAPKAP-K5 peptide substrate, incubated at room temperature for 30 minutes.
The MAPKAP-K5 kinase reaction is performed in a 384 well polypropylene plate (Matrix Technologies) and then transferred to a streptavidin-coated 384 well flashplate (Perkin-Elmer).
To wells containing 2 μL test compound or standard inhibitor, 13 μL Enzyme mix or diluent are added using a Hydra (Robbins Scientific).
Reactions are started by addition of 10 μL of [2,5×] substrate cocktail using a Multidrop (Thermo-Labsystems), to give final concentrations in the assay of:
Plates are incubated at room temperature for 30 minutes.
Reactions are terminated by the addition of 25 μL EDTA (50 mM) to each well using a Micro-fill (Biotek).
Reactions are transferred to a streptavidin-coated flashplate using a Zymark robotic system. Plates are incubated for 60 minutes at room temperature.
All wells are washed 3 times with 100 μl phosphate buffered saline using a Tecan plate washer.
Radioactivity is determined by scintillation counting of the flashplate (empty wells) on a Packard TopCount.
Enzyme Mix: • Enzyme • 50 mM Tris Hcl (pH 7.5) • 0.1 mM EGTA • 2 mM DTT • 1 mg/mL BSA
Reaction Buffer: • 50 mM Tris Hcl (pH 7.5) • 0.1 mM EGTA • 10 mM Magnesium acetate • 2 mM DTT

In the case of `CC(C)N1CCC(c2ccc(Nc3ncc(-c4cnc5c(c4)CNC5=O)n4ncnc34)cc2)CC1` [Compound 190], on MAPKAPK5, the pIC50 (as a rule, the IC50 on a negative log10 scale, so that one unit is a factor of ten) is 6.30 to 7.00.
`NC(=O)c1cc(-c2cnc(Nc3ccc(N4CCN(CC5CC5)CC4)nc3)c3ncnn23)cs1` [Compound 54, 4-{8-[6-(4-[Cyclopropylmethyl]piperazin-1-yl)-pyridin-3-ylamino]-[1,2,4]triazolo[1,5-a]pyrazin-5-yl}thiophene-2-carboxylic acid amide]: the pEC50 (usually the EC50 on a negative log10 scale, so that one unit is a factor of ten) in assay [1] (Table 5, LPS 1 μg/mL, 24 hr, read-out: PBMC EC50) is below 6.00.
On to `NC(=O)c1cc(-c2cnc(Nc3ccc(OCCN4CCOCC4)cc3)c3ncnn23)cs1` [Compound 21, 4-(8-(4-(2-Morpholinoethoxy)phenylamino)-[1,2,4]triazolo[1,5-a]pyrazin-5-yl)thiophene-2-carboxamide], for which, on MAPKAPK5 (setting [3]), the negative logarithm of the IC50 (pIC50) was 6.00 to 6.30.
As for `CN(C)Cc1cc(Nc2ncc(-c3ccc4c(c3)CNC4=O)n3ncnc23)ccc1N1CCNCC1` [Compound 175], the pIC50 against MAPKAPK5 was 6.30 to 7.00.
In the case of `CC(C)N1CCN(c2ccc(Nc3ncc(-c4cc(F)c(C(N)=O)c(F)c4)n4ncnc34)cc2)CC1` [Compound 26], the “MAPKAPK5 IC50 (nM)” value at MAPKAPK5 (setting [4]) is “=”.
In the case of `NC(=O)c1c(F)cc(-c2cnc(Nc3ccc(N4CCOCC4)cc3)c3ncnn23)cc1F` [Compound 14], the “MAPKAPK5 IC50 (nM)” value at MAPKAPK5 (setting [4]) is listed as “=”.
As to `O=C(NCc1ccc(O)cc1)c1cccc(Nc2ncc(-c3cn[nH]c3)n3ncnc23)c1` [Compound 131, N-(4-Hydroxybenzyl) 3-[5-(1H-pyrazol-4-yl)-[1,2,4]triazolo[1,5-a]pyrazin-8-ylamino]benzamide], the negative-log EC50 (pEC50) in assay [2] is below 6.00.
Compound `O=C(N[C@@H]1CCN(Cc2ccccc2)C1)c1ccc(Nc2ncc(-c3cn[nH]c3)n3ncnc23)cc1` [Compound 147] gave a negative logarithm of the EC50 (pEC50) in assay [2] below 6.00. Besides, the negative-log IC50 (pIC50) at MAPKAPK5 is 6.30 to 7.00.
Regarding `Clc1cc(Nc2ncc(-c3cn[nH]c3)n3ncnc23)ccc1N1CCOCC1` [Compound 18], at MAPKAPK5 (setting [4]), the “MAPKAPK5 IC50 (nM)” value was “=”.
`NC(=O)c1ccc(-c2cnc(Nc3ccc(OCCN4CCOCC4)cc3)c3ncnn23)s1` [Compound 22, 5-(8-(4-(2-Morpholinoethoxy)phenylamino)-[1,2,4]triazolo[1,5-a]pyrazin-5-yl)thiophene-2-carboxamide]: the pIC50 at MAPKAPK5 (setting [3]) is below 6.00.
`C[C@@H]1CN(c2ccc(Nc3ncc(-c4csc(C(N)=O)c4)n4ncnc34)cc2)[C@@H](C)CN1C` [Compound 32]: the pEC50 in assay [1] (Homo sapiens, PBMC, 24 h, Table 5, LPS 1 μg/mL) was 6.30 to 7.00.
As for `CCN1CCCC1CNC(=O)c1ccc(Nc2ncc(-c3cn[nH]c3)n3ncnc23)cc1` (centres unmarked) [Compound 163], on MAPKAPK5, the pIC50 was 6.30 to 7.00.
The compound `O=C(N[C@H]1CCN(Cc2ccccc2)C1)c1ccc(Nc2ncc(-c3cn[nH]c3)n3ncnc23)cc1` [Compound 191] had a negative logarithm of the EC50 (pEC50) in assay [2] below 6.00.

For the origin of these results see patent US7915256B2, “Triazolopyrazine compounds useful for the treatment of degenerative and inflammatory diseases” (Galapagos NV, priority 2006, dated 2011).
